Patent US12030897B2, “Pyrrolo[2,1-f][1,2,4]triazine derivatives serving as selective HER2 inhibitors and application thereof” (MEDSHINE DISCOVERY INC., priority 2018, dated 2024)
Read-outs that look alike come from different tables or passages of the source.

What was measured:
[1] = molecular target: HER4 (ErbB4) (Homo sapiens (Human), UniProt Q15303); experiment: In vitro enzyme activity, HER4 (ErbB4), [γ-33P]ATP filter assay; format: biochemical
Method: (§1) The object of this test is to detect the in vitro inhibitory activity of the compound against HER1 (ErbB1), HER2 (ErbB2) and HER4 (ErbB4). The enzymes used in this test were human ErbB1, ErbB2 and ErbB4. Eurofins Pharma Discovery Service provided the activity detection method, and the results of the inhibitory activity of the tested compound against HER1, HER2 and HER4 were shown in Table 1.
(§2) Experimental Steps and Methods (96-Well Plate):
(§3) 5-fold diluted tested compound buffer (5 μL), peptide substrate poly(Glu, Tyr) (4:1) (2.5 μL), ErbB (4-20 ng, 2.5 μL), MnCl2 (50 mM, 1.25 μL), dH2O (3.75 μL) and [γ-^33P]ATP (10 μL) were added, and incubated at 30° C. for 10 min. 3% phosphoric acid was added to terminate the reaction, and 10 μL of the specimen was transferred to Filtermate A. The filter was washed with 75 mM phosphoric acid for three times and methanol once, and transferred to a sealed plastic bag, and a scintillation fluid mixture (4 mL) was added, The intensity of the emitted photons was detected on the scintillation luminescence counter. The photon intensity of the enzyme sample was compared with the photon intensity of the internal control sample, and the level of photon intensity reflected the strength of the tyrosine kinase activity.

[2] = molecular target: CYP2C9 (Homo sapiens (Human), UniProt P11712); experiment: Inhibition of human liver microsomal cytochrome P450 isoenzyme CYP2C9; format: in vitro ADME; settings: human liver microsomes
Method: (§4) The object of this study was to evaluate the effect of Example 4 on the activities of five isoenzymes (CYP1A2, CYP2C9, CYP2C19, CYP2D6 and CYP3A4) of human liver microsomal cytochrome P450 (CYP) using an in vitro test system. The specific probe substrates of CYP450 isozymes were incubated with human liver microsomes and different concentrations of Example 4, and reduced nicotinamide adenine dinucleotide phosphate (NADPH) was added to initiate the reaction. After the reaction was completed, the samples were treated, and liquid chromatography tandem mass spectrometry (LC/MS/MS) was used to detect the metabolites produced by specific substrates.

[3] = molecular target: CYP3A4 (Homo sapiens (Human), UniProt P08684); experiment: Inhibition of human liver microsomal cytochrome P450 isoenzyme CYP3A4; format: in vitro ADME; settings: human liver microsomes
Method: as §4

[4] = molecular target: CYP1A2 (Homo sapiens (Human), UniProt P05177); format: in vitro ADME; settings: microsomes
Method: as §4

[5] = Pharmacokinetic properties in mice; format: in vivo; settings: female, Balb/c; for clearance / Vd / bioavailability: plasma, mouse; for Vd: read-out: Vdss; for bioavailability: read-out: F (bioavailability); for AUC(0-inf) / AUC(0-t) / half-life / Cmax: mouse plasma
Method: The tested compound was dissolved in 10% DMSO/45% PEG400/45% water, vortexed and sonicated to prepare a clear solution with the corresponding concentration, which was filtered through a millipore filter for use. 18 to 20 grams of Balb/c female mice were selected, and the candidate compound solution was administered intravenously at a dose of 1 or 2 mg/kg. The tested compound was dissolved in 10% NMP/10% polyethylene glycol-15-hydroxystearate/80% water, vortexed and sonicated to prepare a clear solution with the corresponding concentration, which was filtered through a millipore filter for use. 18 to 20 grams of Balb/c female mice were selected, and the candidate compound solution was administered orally at a dose of 2 or 10 mg/kg. The whole-blood for a certain period of time was collected to prepare plasma. The drug concentration was analyzed by the LC-MS/MS method, and the pharmacokinetic parameters were calculated by the Phoenix WinNonlin software (Pharsight, USA).

[6] = molecular target: HER2 (ErbB2) (Homo sapiens (Human), UniProt P04626); experiment: In vitro enzyme activity, HER2 (ErbB2), [γ-33P]ATP filter assay; format: biochemical
Method: as §1, §2, §3

[7] = system: NCI-N87 cell; experiment: Cell proliferation inhibitory activity, Cell-Titer-Glo, NCI-N87; format: cell-based, human; settings: Homo sapiens, NCI-N87, 72 h; 3 days incubation
Text: Experiment object: to detect the inhibitory activity of the tested compound on cell proliferation.
Experimental principle: the luciferase in the Cell-Titer-Glo reagent uses luciferin, oxygen and ATP as reaction substrates to produce oxyluciferin and release energy in the form of light. Since the luciferase reaction requires ATP, the total amount of light produced by the reaction is proportional to the total amount of ATP that reflects cell viability.
Experimental Materials: • cell lines: NCI-N87 cell line (ATCC-CRL-5822); BT-474 cell line (ATCC-HTB-20) • Cell culture medium: RPMI 1640 medium (Invitrogen #22400-105; 10% serum Invitrogen #10090148; L-glutamine 1×, Gibco #25030-081; double antibody Hyclone #SV30010) • CellTiter-Glo® luminescence cell viability detection kit (Promega #G7573) • 384-well cell culture plate (Greiner #781090) • Compound plate (LABCYTE #LP-0200) • CO2 incubator (Thermo #371) • Vi-cell cell counter (Beckman Coulter) • Pipette (Eppendorf) • Pipette (Greiner) • Pipetting gun (Eppendorf) • Multifunctional microplate reader (Envision Reader) • ECHO Liquid-handling workstation (Labcyte-ECHO555)
The cells were inoculated in a 384-well plate with a density of 1000 cells per well and 25 μL per well. The edge wells were not inoculated with cells, and was supplemented with 25 μL of phosphate buffer.
The compound was added to the plate with 9 μL per well.
(2) The compound was diluted with ECHO liquid-handling workstation, and each well of the cell plate was added with 125 nL of compound. Each well of the cell wells of columns 2 and 23 was added with 125 nL of DMSO, and each well of the Media wells of columns 1 and 24 was added with 125 nL of DMSO.
(3) Each well of the cell plate was supplemented with 25 μL of culture medium, and the final volume in each well of the cell plate was 50 μL. The concentration of the compound was 10 μM, which was subjected to 3 fold dilution to obtain 10 concentrations. Each concentration was duplicated in left and right wells, and the final DMSO concentration was 0.25%.
2.3 After adding the compound, it was centrifuged at 1000 rpm for 1 min. The cell plate was placed in a 37° C., 5% CO2 incubator for 3 days.
The cell plate was taken from the incubator and equilibrated at room temperature for 30 min. 25 μL of Cell-Titer-Glo reagent was added to each well, shaken for 1 min to make it thoroughly mixed, and centrifuged at 1000 rpm for 1 min. After 10 min, the plate was read on PerkinElmer Envision, and the […] reading time was set to 0.2 seconds.

[8] = molecular target: CYP2C19 (Homo sapiens (Human), UniProt P33261); experiment: Inhibition of human liver microsomal cytochrome P450 isoenzyme CYP2C19; format: in vitro ADME; settings: human liver microsomes
Method: as §4

Sequence of CYP3A4 (P08684 whole entry): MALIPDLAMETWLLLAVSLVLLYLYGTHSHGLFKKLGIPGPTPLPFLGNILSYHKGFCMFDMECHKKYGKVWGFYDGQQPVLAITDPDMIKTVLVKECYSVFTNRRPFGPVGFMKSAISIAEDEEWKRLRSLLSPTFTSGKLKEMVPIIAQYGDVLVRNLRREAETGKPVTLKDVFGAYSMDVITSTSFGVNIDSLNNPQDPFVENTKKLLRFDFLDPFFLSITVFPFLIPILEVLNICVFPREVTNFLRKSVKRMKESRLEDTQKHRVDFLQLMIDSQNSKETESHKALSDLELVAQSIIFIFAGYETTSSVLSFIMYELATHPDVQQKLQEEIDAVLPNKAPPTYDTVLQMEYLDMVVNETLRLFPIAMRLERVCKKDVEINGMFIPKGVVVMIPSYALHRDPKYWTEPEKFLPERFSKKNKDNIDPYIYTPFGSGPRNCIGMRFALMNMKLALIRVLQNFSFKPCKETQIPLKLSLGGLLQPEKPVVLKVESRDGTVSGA
Sequence of HER2 (ErbB2) (P04626 23-1255): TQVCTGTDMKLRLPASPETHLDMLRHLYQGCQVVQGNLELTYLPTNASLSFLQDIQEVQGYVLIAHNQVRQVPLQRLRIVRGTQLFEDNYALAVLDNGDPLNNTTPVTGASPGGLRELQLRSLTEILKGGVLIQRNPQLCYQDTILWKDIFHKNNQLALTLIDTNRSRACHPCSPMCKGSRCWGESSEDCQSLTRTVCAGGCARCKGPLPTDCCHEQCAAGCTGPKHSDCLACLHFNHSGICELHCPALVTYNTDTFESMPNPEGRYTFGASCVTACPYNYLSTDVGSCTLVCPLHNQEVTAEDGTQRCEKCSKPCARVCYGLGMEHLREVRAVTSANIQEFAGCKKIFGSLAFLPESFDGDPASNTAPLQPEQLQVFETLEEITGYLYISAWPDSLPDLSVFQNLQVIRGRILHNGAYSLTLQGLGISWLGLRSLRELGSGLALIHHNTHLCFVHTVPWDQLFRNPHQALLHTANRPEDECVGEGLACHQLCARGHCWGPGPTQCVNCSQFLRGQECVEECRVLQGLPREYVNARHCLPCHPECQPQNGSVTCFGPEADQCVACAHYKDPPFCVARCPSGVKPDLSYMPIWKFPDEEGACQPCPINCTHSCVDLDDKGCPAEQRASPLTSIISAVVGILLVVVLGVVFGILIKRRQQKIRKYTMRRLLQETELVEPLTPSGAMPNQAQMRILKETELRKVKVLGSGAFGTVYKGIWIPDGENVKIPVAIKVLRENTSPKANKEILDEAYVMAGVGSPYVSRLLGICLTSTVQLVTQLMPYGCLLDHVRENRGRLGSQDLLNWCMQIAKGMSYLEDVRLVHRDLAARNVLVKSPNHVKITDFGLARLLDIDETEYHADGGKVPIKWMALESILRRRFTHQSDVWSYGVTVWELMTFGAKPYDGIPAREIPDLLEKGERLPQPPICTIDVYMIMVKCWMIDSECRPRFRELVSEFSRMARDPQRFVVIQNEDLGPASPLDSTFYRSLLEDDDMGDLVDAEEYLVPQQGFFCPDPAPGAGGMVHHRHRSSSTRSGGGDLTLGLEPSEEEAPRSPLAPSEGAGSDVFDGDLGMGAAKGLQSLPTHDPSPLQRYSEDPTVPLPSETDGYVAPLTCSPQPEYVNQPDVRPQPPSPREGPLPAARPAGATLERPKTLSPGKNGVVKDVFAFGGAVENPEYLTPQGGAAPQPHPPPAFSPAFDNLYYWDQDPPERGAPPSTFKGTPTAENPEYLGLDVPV
Sequence of CYP2C9 (P11712 whole entry): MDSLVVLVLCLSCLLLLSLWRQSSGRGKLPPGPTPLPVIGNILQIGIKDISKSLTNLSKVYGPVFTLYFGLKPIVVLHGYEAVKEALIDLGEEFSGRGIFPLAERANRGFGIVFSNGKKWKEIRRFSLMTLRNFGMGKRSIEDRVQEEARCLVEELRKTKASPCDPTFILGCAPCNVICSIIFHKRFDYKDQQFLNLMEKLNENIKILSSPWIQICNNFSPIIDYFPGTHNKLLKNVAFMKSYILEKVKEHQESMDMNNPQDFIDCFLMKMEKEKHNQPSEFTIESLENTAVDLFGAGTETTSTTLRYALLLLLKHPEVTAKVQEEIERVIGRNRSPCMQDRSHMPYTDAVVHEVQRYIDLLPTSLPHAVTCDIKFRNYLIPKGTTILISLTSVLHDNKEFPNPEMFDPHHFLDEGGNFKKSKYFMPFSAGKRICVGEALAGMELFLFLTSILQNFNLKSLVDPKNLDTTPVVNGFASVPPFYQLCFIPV
Sequence of CYP1A2 (P05177 whole entry): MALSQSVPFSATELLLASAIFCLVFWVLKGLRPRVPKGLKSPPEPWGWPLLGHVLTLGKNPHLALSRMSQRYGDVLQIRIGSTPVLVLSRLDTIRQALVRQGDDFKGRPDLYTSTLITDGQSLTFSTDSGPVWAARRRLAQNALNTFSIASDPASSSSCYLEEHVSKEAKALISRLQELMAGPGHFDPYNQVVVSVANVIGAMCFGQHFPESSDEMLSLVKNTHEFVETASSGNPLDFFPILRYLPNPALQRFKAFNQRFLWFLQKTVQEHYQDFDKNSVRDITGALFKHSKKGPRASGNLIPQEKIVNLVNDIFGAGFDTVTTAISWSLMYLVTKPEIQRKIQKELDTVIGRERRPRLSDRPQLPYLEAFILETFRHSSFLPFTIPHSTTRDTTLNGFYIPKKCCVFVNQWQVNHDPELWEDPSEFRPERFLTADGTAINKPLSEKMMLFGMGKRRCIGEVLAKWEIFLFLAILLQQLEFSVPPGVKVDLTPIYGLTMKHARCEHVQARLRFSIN
Sequence of HER4 (ErbB4) (Q15303 26-1308): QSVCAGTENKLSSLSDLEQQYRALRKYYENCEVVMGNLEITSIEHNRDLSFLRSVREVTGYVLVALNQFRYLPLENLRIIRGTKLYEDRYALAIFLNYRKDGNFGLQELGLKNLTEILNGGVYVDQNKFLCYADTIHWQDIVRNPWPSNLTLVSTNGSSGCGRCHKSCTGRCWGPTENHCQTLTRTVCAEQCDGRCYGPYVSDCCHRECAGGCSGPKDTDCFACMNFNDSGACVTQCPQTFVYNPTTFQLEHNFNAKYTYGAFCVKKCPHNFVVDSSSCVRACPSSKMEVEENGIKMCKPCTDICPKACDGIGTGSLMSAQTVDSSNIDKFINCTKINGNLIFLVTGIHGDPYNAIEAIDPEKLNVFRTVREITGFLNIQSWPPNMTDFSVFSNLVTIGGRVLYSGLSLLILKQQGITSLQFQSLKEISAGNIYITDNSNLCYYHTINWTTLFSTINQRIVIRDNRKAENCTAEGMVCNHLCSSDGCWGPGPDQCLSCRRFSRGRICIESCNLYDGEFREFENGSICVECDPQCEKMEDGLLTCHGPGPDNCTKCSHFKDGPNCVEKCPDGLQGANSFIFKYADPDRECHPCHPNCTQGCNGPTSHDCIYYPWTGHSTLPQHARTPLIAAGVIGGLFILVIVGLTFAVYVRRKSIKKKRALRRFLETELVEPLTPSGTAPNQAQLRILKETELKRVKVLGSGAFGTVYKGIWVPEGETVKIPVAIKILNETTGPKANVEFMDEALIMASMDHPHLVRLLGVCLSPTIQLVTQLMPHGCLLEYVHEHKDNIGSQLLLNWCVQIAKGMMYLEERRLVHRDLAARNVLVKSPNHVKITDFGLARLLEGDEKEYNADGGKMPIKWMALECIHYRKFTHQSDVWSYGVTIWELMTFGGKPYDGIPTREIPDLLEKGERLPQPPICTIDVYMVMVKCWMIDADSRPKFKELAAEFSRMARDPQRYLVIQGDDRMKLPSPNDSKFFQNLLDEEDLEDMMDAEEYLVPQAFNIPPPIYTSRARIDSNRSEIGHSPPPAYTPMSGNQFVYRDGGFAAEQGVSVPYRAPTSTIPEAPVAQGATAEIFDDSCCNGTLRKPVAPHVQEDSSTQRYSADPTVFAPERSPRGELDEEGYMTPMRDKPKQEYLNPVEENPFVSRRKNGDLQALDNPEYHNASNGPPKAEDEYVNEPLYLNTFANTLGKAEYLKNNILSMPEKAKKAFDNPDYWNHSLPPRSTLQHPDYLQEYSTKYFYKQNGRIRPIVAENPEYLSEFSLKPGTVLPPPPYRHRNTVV
Sequence of CYP2C19 (P33261 whole entry): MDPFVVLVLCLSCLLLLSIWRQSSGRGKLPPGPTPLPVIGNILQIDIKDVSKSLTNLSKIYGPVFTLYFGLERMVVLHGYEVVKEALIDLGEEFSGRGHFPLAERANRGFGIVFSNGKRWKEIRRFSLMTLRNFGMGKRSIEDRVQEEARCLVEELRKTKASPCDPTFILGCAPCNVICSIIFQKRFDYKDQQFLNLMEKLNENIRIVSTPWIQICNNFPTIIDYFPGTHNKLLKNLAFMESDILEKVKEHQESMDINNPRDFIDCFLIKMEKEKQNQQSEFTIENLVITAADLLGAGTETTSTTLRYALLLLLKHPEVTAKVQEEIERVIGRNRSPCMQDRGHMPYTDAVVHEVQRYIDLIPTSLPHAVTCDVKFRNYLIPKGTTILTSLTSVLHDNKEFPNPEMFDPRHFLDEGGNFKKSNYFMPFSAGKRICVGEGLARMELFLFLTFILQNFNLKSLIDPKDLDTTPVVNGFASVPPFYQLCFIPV

Cc1cc(Nc2ncnn3ccc(CN4CCC(N)CC4)c23)ccc1Oc1ccn2ncnc2c1 [Example 4]
IC50 [1]: 0.156 µM
IC50 [2]: > 50 µM
IC50 [3]: 32.4 µM
IC50 [4]: > 50 µM
clearance ([5]; IV 1 mg/kg): 19.2 mL/min/kg
Vd ([5]; IV 1 mg/kg): 2.3 L/kg
clearance ([5]; IV 2 mg/kg): 33 mL/min/kg
Vd ([5]; IV 2 mg/kg): 2.81 L/kg
bioavailability ([5]; PO 2 mg/kg): 22.7%
bioavailability ([5]; PO 10 mg/kg): 40.2%
AUC(0-inf) ([5]; IV 1 mg/kg): 1.57 µM·h
AUC(0-t) ([5]; IV 1 mg/kg): 1.52 µM·h
half-life ([5]; IV 1 mg/kg): 1.65 h
AUC(0-inf) ([5]; IV 2 mg/kg): 2.15 µM·h
AUC(0-t) ([5]; IV 2 mg/kg): 2.13 µM·h
half-life ([5]; IV 2 mg/kg): 1.34 h
AUC(0-inf) ([5]; PO 2 mg/kg): 0.95 µM·h
AUC(0-t) ([5]; PO 2 mg/kg): 0.928 µM·h
Cmax ([5]; PO 2 mg/kg): 306 nM
half-life ([5]; PO 2 mg/kg): 1.37 h
AUC(0-inf) ([5]; PO 10 mg/kg): 4.33 µM·h
AUC(0-t) ([5]; PO 10 mg/kg): 4.28 µM·h
Cmax ([5]; PO 10 mg/kg): 1250 nM
half-life ([5]; PO 10 mg/kg): 1.08 h
IC50 [6]: 0.012 µM
IC50 [7]: 0.007 µM
IC50 [8]: 36.1 µM
